This passage reports IC50 results from patent US4673684A, “Amide derivatives and 5-lipoxygenase inhibitors containing the same as an active ingredient” (Terumo Corporation, priority 1984, dated 1987).

One assay has as its target T1, 5-lipoxygenase (Mus musculus, UniProt P48999).
T1 construct: The supernatant is used as a 5-lipogenase enzyme solution; endogenous in cells
T1 sequence (P48999 1-674): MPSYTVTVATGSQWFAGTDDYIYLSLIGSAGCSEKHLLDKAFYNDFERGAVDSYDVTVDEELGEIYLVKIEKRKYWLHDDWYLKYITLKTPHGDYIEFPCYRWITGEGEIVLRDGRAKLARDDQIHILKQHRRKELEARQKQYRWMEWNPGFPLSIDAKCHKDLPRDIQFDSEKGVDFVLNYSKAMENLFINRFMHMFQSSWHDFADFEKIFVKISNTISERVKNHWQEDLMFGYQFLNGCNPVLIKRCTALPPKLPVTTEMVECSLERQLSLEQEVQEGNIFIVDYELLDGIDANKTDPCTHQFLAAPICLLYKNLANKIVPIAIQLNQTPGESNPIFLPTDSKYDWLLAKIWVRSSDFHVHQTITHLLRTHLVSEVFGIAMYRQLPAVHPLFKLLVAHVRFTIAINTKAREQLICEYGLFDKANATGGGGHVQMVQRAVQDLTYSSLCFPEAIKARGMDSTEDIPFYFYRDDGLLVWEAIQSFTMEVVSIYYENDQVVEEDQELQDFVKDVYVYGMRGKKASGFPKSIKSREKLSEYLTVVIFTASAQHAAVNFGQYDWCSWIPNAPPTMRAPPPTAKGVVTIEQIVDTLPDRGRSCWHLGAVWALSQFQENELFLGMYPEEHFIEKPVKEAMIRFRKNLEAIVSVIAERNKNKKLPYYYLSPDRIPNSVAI
The assay is described as follows: 5-Lipoxygenase-inhibiting Activity (decrease in 5-HETE and LTB4 formed from radiolabelled arachidonic acid, enzyme solution from mouse mastcytoma cells P-815). In kind it is biochemical.
Details: not given
Here is the method:
Mouse mastcytoma cells P-815 are diluted in a culture solution, containing 90% Eagle Basic Medium (manufactured by Gibco Laboratories) to 5×10^4 cells/ml. The diluted solution is cultivated with shaking in air at 37° C. for 48 hours. Then, the culture solution is cooled with ice and centrifuged to collect the cells. The cells are suspended in a phosphate buffer solution at pH 7.4 at a concentration of 2×10^7 cells/ml. The suspension is treated in a ultrasonic cell disintegrater and then centrifuged at 10,000 r.p.m. for 10 min. The supernatant is used as a 5-lipogenase enzyme solution. In test tubes are placed 20 μl of radiolabelled arachidonic acid ([…]), indomethacin (2×10^-8 mol) and an amide derivative to be tested, respectively. To each of the test tubes are added 0.45 ml of a phosphate buffer solution, 0.45 ml of the above-prepared suspension, 0.45 ml of the above-prepared enzyme solution and 0.1 ml of 8 mM CaCl2 (calcium chloride). The mixture is reacted at 37° C. for 5 min. After cooled with ice, 60 μl of 1N-HCl (hydrochloric acid is added to the reaction mixture, which is then extracted with 8 ml of ethyl acetate. The extract is concentrated, and the concentrate is developed by spotting on a silica gel thin layer plate (Merck 60F 254). Measurement of the inhibitory activity is made by collecting fractions corresponding to lipoxygenase products 5-HETE (5(s)-hydroxy-6,8,11,14-eicosatetraenic acid) and LTB4 (leucotriene B4) and determining the radioactivity by a liquid scintillation counter. The lipoxygenase inhibiting activity is determined by decrease in the amount of the above-mentioned 5-lipoxygenaseproducts. […] 50% inhibitory concentration or 30% inhibitory concentration as indicated in the table means the concentration of an amide derivative required for reducing the amount of the above-mentioned 5-lipoxygenase products (5-HETE and LTB4) to 50% or 30% of the amount when the amount of 5-HETE and LTB4 produced in the absenced of the amide derivative is 100%.
`COc1ccc(/C=C/C(=O)N2CCN(CCOC(c3ccccc3)c3ccccc3)CC2)cc1OC` [Example 76, N-[3-(3,4-dimethoxyphenyl) -2-propenoyl]-N'-(2-benzhydroxyethyl)piperazine] showed an IC50 of 20000 nM.
`COc1cc(/C=C/C(=O)N2CCN(CCOC(c3ccccc3)c3ccccc3)CC2)cc(OC)c1O` [Example 79, N-[3-(3,5-dimethoxy-4-hydroxyphenyl) -2-propenoyl]-N'-(2-benzhydroxyethyl)piperazine] registered an IC50 of 40 nM.
In turn, `O=C(/C=C/C=C/c1ccc(O)c(O)c1)N1CCN(CCOC(c2ccccc2)c2ccccc2)CC1` [Example 84, N-[5-(3,4-dihydroxyphenyl)-2,4-pentadienoyl]--N'-(2-benzhydroxyethyl)piperazine] showed an IC50 of 30 nM.
On the same count and under the same terms, the value for `COc1cc(/C=C/C=C/C(=O)N2CCN(CCOC(c3ccccc3)c3ccccc3)CC2)ccc1O` [Example 89, N-[5-(3-methoxy-4-hydroxyphenyl)-2,4-pentadienoyl]-N'-(2-benzhydroxyethyl)piperazine] was 60 nM; that for `COc1cc(/C=C/C=C/C(=O)N2CCN(CCOC(c3ccccc3)c3ccccc3)CC2)cc(OC)c1O` [Example 98, N-[5-(3,5-dimethoxy-4-hydroxyphenyl)-2,4-pentadienoyl)-N'-(2-benzhydroxyethyl)piperazine] was 9 nM.

The assay is the same for the next values; noted with them: 5-HETE and LTB4 formation; mouse mastcytoma P-815 enzyme solution; 37° C., 5 min; pH 7.4; with indomethacin; read-out: 50% Inhibitory concentration IC50.
For `COc1cc(/C=C/C(=O)NCCn2cnc3c2c(=O)n(C)c(=O)n3C)ccc1O` [Example 69, 7-[2-[3-(3-methoxy-4-hydroxy)phenyl-2-propenoyl]aminoethyl]theophylline], the IC50 was found to be 6000 nM.
On to `COc1cc(/C=C/C(=O)N2CCN(CCOC(c3ccccc3)c3ccccc3)CC2)ccc1O` [Example 70], for which the IC50 came out at 600 nM.
For the molecule `COc1cc(/C=C/C(=O)N2CCN(CCCOC(c3ccccc3)c3ccccc3)CC2)ccc1O` [Example 71, N-[3-(3-methoxy-4-hydroxy)phenyl-2-propenoyl]-(3-benzhydroxypropyl)piperazine], the IC50 worked out at 600 nM.
`COc1cc(/C=C/C(=O)NCCOC(c2ccccc2)c2ccccc2)ccc1O` [Example 72, 2-[3-(3-methoxy-4-hydroxy)phenyl-2-propenoyl]aminoethyl benzhydryl ether]: the IC50 came out at 900 nM.
Still for that read-out and setting: the value for `COc1cc(/C=C/C(=O)NCCCOC(c2ccccc2)c2ccccc2)ccc1O` [Example 73, 3-[3-[3-methoxy-4-hydroxyphenyl)-2-propenoyl]aminopropyl benzhydryl ether] was 700 nM.
Take `COc1ccc(/C=C/C(=O)NCCCCN2CCN(C(c3ccccc3)c3ccccc3)CC2)cc1OC` [Example 74, N-[4-[3-(3,4-dimethoxyphenyl)-2-propenoyl]aminobutyl]-N'-benzhydrylpiperazine]: the IC50 stood at 8000 nM.
On the same count and under the same terms, the value for `COc1ccc(/C=C/C(=O)NCCn2cnc3c2c(=O)n(C)c(=O)n3C)cc1OC` [Example 75, 7-[2-[3-(3,4-dimethoxyphenyl) -2-porpenoyl]aminoethyl]theophylline] was 20000 nM.
The same measure, in the same setting: in the case of `COc1ccc(/C=C/C(=O)NCCOC(c2ccccc2)c2ccccc2)cc1OC` [Example 77, 2-[3-(3,4-dimethoxyphenyl)-2-propenoyl]aminoethyl benzhydryl ether] it was 10000 nM; in that of `COc1cc(/C=C/C(=O)NCCCCN2CCN(C(c3ccccc3)c3ccccc3)CC2)cc(OC)c1O` [Example 78, N-benzyhdryl-N'-3-(3,5-dimethoxy-4-hydroxy)phenyl-2-propenoylaminobutylpiperazine], 30 nM.
For `COc1cc(/C=C/C(=O)N2CCN(CCCOC(c3ccccc3)c3ccccc3)CC2)cc(OC)c1O` [Example 80, N-[3-(3,5-dimethoxy-4-hydroxyphenyl) 2-propenoyl]-N'-(3-benzhydroxypropyl)piperazine], the IC50 is 30 nM.
Still for that read-out and setting: the value for `COc1cc(/C=C/C(=O)NCCOC(c2ccccc2)c2ccccc2)cc(OC)c1O` [Example 81, 2-[3-(3,5-dimethoxy-4-hydroxy]phenyl-2-propenoyl) aminoethyl benzhydryl ether] was 50 nM; that for `O=C(/C=C/C=C/c1ccc(O)c(O)c1)NCCCCN1CCN(C(c2ccccc2)c2ccc(Cl)cc2)CC1` (stereo not shown) [Example 82, N-(p-chlorobenzhydryl)-N'-[4-[5-(3,4-dihydreoxyphenyl) -2,4-pentadienoyl]aminobutyl]piperazine] was 20 nM; that for `O=C(/C=C/C=C/c1ccc(O)c(O)c1)NCCCCN1CCN(C(c2ccccc2)c2ccccc2)CC1` [Example 83, N-benzhydryl-N'-5-(3,4-dihydroxyphenyl)-2,4-pentadienoylaminobutylpiperazine] was 40 nM.
For the molecule `O=C(/C=C/C=C/c1ccc(O)c(O)c1)N1CCN(CCCOC(c2ccccc2)c2ccccc2)CC1` [Example 85, N-[5,[3,4-hydroxyphenyl]-2,4-pentadienoyl]-N'-(3-benzhydroxypropyl)piperazine], the IC50 was found to be 30 nM.
The same measure, in the same setting: in the case of `COc1cc(/C=C/C=C/C(=O)NCCCCN2CCN(C(c3ccccc3)c3ccc(Cl)cc3)CC2)ccc1O` (stereo not shown) [Example 86] it was 40 nM; in that of `COc1cc(/C=C/C=C/C(=O)NCCCCN2CCN(C(c3ccccc3)c3ccccc3)CC2)ccc1O` [Example 87, N-benzhydryl-N'-[4-[5-(3-methoxy-4-hydroxyphenyl)-2,4-pentadienoyl]aminobutyl]piperzine], 60 nM.
The same measure, in the same setting: the value for `COc1cc(/C=C/C=C/C(=O)NCCn2cnc3c2c(=O)n(C)c(=O)n3C)ccc1O` [Example 88] was 4000 nM; that for `COc1cc(/C=C/C=C/C(=O)N2CCN(CCCOC(c3ccccc3)c3ccccc3)CC2)ccc1O` [Example 90, N-[5-(3-methoxy-4-hydroxyphenyl)-2,4-pentadienoyl]-N'-(3-benzhydroxypropyl)piperazine] was 60 nM; that for `COc1cc(/C=C/C=C/C(=O)NCCOC(c2ccccc2)c2ccccc2)ccc1O` [Example 91, 2-[5-(3-methoxy-4-hydroxy)phenyl-2,4-pentadienoyl]aminoethyl benzhydryl ether] was 60 nM.
Regarding `COc1cc(/C=C/C=C/C(=O)NCCCOC(c2ccccc2)c2ccccc2)ccc1O` [Example 92, 3-[5-[3-methoxy-4-hydroxyphenyl)-2,4-pentadienoyl]aminopropyl benzhydryl ether], the IC50 amounted to 90 nM.
Regarding `COc1ccc(/C=C/C=C/C(=O)NCCCCN2CCN(C(c3ccccc3)c3ccccc3)CC2)cc1OC` [Example 93], the IC50 worked out at 3000 nM.
On the same count and under the same terms, in the case of `COc1ccc(/C=C/C=C/C(=O)N2CCN(CCCOC(c3ccccc3)c3ccccc3)CC2)cc1OC` [Example 94, N-[5-(3,4-dimethoxyphenyl)-2,4-pentadienoyl]-N'-(3-benzhydroxypropyl)piperazine] it was 4000 nM; in that of `COc1cc(/C=C/C=C/C(=O)NCCn2cnc3c2c(=O)n(C)c(=O)n3C)cc(OC)c1OC` [Example 95], 9000 nM.
Same read-out and setting: in the case of `COc1cc(/C=C/C=C/C(=O)NCCCCN2CCN(C(c3ccccc3)c3ccc(Cl)cc3)CC2)cc(OC)c1O` (stereo not shown) [Example 96, N-p-chlorobenzhydryl-N'-5-(3,5-dimethoxy-4-hydroxy)phenyl-2,4-pentadienlylaminobutylpiperazine] it was 20 nM; in that of `COc1cc(/C=C/C=C/C(=O)NCCCCN2CCN(C(c3ccccc3)c3ccccc3)CC2)cc(OC)c1O` [Example 97, N-benzhydryl-N'-[4-[5-(3,5-dimethoxy-4-hydroxy)phenyl-2,4-pentadienoyl]aminobutyl]], 40 nM; in that of `COc1cc(/C=C/C=C/C(=O)N2CCN(CCCOC(c3ccccc3)c3ccccc3)CC2)cc(OC)c1O` [Example 99], 30 nM.
